These results are taken from US9029325B2, “Amylin analogues and pharmaceutical compositions thereof” (Novo Nordisk A/S, priority 2011, dated 2015).

Data set [1] deals with amylin receptor versus calcitonin receptor. The settings on record: cited from earlier work.
Data set [2] is described as follows: Assay (I) efficacy testing on appetite (food intake), ad libitum fed rat model. The settings on record: 3 nmol/kg. The format is in vivo, Sprague Dawley (SD) rats. The method, boiled down: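 Ad libitum fed SD rats (200-250 g) on a reversed light cycle, housed individually, received a single 0.01-3 mg/kg dose ip, po or sc just before lights-off. Individual food intake recorded hourly for 7 h, then at 24 h and sometimes 48 h, versus vehicle; Grubbs outliers excluded.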

The nature of data set [3]: Assay (III) ThT fibrillation assay for physical stability. As to conditions: for Th T pH 4.0 lag time (h): 37° C., orbital shaking 960 rpm; for ThT pH 4.0 lag time: Table 9. The format is physicochemical. The method, boiled down:
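Freshly prepared samples, pH adjusted with NaOH and HClO4 or HCl, received ThT at 1 μM final and were incubated at 37° C with orbital shaking at 960 rpm. Fluorescence (ex 444 nm, em 485 nm) was read every 20 minutes; […], with polypeptide concentration by reverse HPLC before and after.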

Where two headings read alike, the source gives them in different places. Starred links: 1 amine or outer side, 2 acyl side, 3 side chain; linkers in the order of their positions; H or OH if unused. Positions of bridges follow the written chain, without caps; N, C: chain ends. Residues, ends and D or L forms follow the SMILES beside them. *: point of attachment. C20 diacid = O=C(O)CCCCCCCCCCCCCCCCCCC(=O)*; γGlu = O=C(O)[C@H](CCC(=O)[*:2])N[*:1]

For pramlintide, the “times more potent on the amylin receptor than on the calcitonin receptor” value in data set [1] is 14 times; in data set [1] (listed as Pramlintide), “approximately 14 times”.

For the compound `CC[C@H](C)[C@H](NC(=O)[C@@H]1CCCN1C(=O)CNC(=O)[C@H](Cc1ccccc1)NC(=O)[C@H](CC(N)=O)NC(=O)[C@H](CC(N)=O)NC(=O)[C@H](CO)NC(=O)[C@H](CO)NC(=O)[C@H](Cc1c[nH]cn1)NC(=O)[C@H](CCCNC(=N)N)NC(=O)[C@H](CC(C)C)NC(=O)[C@H](Cc1ccccc1)NC(=O)[C@H](CCC(=O)O)NC(=O)[C@H](C)NC(=O)[C@H](CC(C)C)NC(=O)[C@H](CCCNC(=N)N)NC(=O)[C@H](CCC(N)=O)NC(=O)[C@@H](NC(=O)[C@H](C)NC(=O)[C@@H]1CSSC[C@H](NC(=O)[C@H](CCCCN)NC(=O)CC[C@H](NC(=O)CCCCCCCCCCCCCCCCCCC(=O)O)C(=O)O)C(=O)N[C@@H](CC(N)=O)C(=O)N[C@@H]([C@@H](C)O)C(=O)N[C@@H](C)C(=O)N[C@@H]([C@@H](C)O)C(=O)N1)[C@@H](C)O)C(=O)N[C@@H](CC(C)C)C(=O)N1CCC[C@H]1C(=O)N1CCC[C@H]1C(=O)N[C@H](C(=O)N[C@@H](CC(N)=O)C(=O)N[C@H](C(=O)NCC(=O)N[C@@H](CO)C(=O)N[C@@H](CC(N)=O)C(=O)N[C@H](C(=O)N1CCC[C@H]1C(N)=O)[C@@H](C)O)C(C)C)[C@@H](C)O` [Example 53, N-alpha-[(S)-4-Carboxy-4-(19-carboxynonadecanoylamino)butyryl]-[Glu14, Arg17, Pro37]-pramlintide], in data set [2], the “Food intake reduction 0-24 h 3 nmol/kg (%)” value is recorded as 40% and the “Food intake reduction 24-48 h 3 nmol/kg (%)” value came to 28%. Moreover, in data set [3], the “Th T pH 4.0 lag time (h)” value is on record as over 45 h and the “ThT pH 4.0 lag time” value was over 45 hr.

On to `CC[C@H](C)[C@H](NC(=O)[C@@H]1CCCN1C(=O)CNC(=O)[C@H](Cc1ccccc1)NC(=O)[C@H](CC(N)=O)NC(=O)[C@H](CC(N)=O)NC(=O)[C@H](CO)NC(=O)[C@H](CO)NC(=O)[C@H](Cc1c[nH]cn1)NC(=O)[C@H](CCCNC(=N)N)NC(=O)[C@H](CC(C)C)NC(=O)[C@H](Cc1ccccc1)NC(=O)[C@H](CCC(=O)O)NC(=O)[C@H](C)NC(=O)[C@H](CC(C)C)NC(=O)[C@H](CCCNC(=N)N)NC(=O)[C@H](CCC(N)=O)NC(=O)[C@@H](NC(=O)[C@H](C)NC(=O)[C@@H]1CSSC[C@H](NC(=O)[C@H](Cc2c[nH]cn2)NC(=O)CNC(=O)CC[C@H](NC(=O)CCCCCCCCCCCCCCCCCCC(=O)O)C(=O)O)C(=O)N[C@@H](CC(N)=O)C(=O)N[C@@H]([C@@H](C)O)C(=O)N[C@@H](C)C(=O)N[C@@H]([C@@H](C)O)C(=O)N1)[C@@H](C)O)C(=O)N[C@@H](CC(C)C)C(=O)N1CCC[C@H]1C(=O)N1CCC[C@H]1C(=O)N[C@H](C(=O)N[C@@H](CC(N)=O)C(=O)N[C@H](C(=O)NCC(=O)N[C@@H](CO)C(=O)N[C@@H](CC(N)=O)C(=O)N[C@H](C(=O)N1CCC[C@H]1C(N)=O)[C@@H](C)O)C(C)C)[C@@H](C)O` [Example 89, N-alpha-[(S)-4-Carboxy-4-(19-carboxynonadecanoylamino)butyryl]-Gly-[His1, Glu14, Arg17, Pro37]-pramlintide] ({C20 diacid-γGlu}-GHCNTATCATQRLAEFLRHSSNNFGPILPPTNVGSNTP-NH2; disulfide 3-8), for which, in data set [2], the “Food intake reduction 0-24 h 3 nmol/kg (%)” value worked out at 42% and the “Food intake reduction 24-48 h 3 nmol/kg (%)” value was 23%. Further, in data set [3], the “Th T pH 4.0 lag time (h)” value is recorded as over 45 h and the “ThT pH 4.0 lag time” value is recorded as over 45 hr.
